Laboratory results taken from ChEMBL document CHEMBL5104193, “Hypoxia-Activated Prodrugs with Dual COX-2/CA Inhibitory Effects on Attenuating Cardiac Inflammation under Hypoxia” (J Med Chem, 2022).
The source made the active and inactive calls. No cut-off for these calls is given here.

Key:
H9c2 [1] = assay: (§1) Protection against LPS/hypoxia induced apoptosis in rat H9c2 cells assessed as reduction in necrotic cells at 10 umol/L incubated for 4 hrs under hypoxia condition by AnnexinV-FITC/propidium iodide staining based flow cytometry analysis (reference value: 31.02%); assay type: functional; set-up: scale not given: the % may be the effect or the level left; settings: dose 10 µmol/L, at 10 µM
H9c2 [2] = assay: as §1, with “condition in presence of 2-(4-(5-oxo-5-((5-sulfamoyl-1,3,4-thiadiazol-2-yl)amino)pentyl)-1H-1,2,3-triazol-1-yl)acetic acid” for “condition”; assay type: functional; set-up: scale not given: the % may be the effect or the level left; settings: dose 10 µmol/L, at 10 µM
H9c2 [3] = assay: Anti-inflammatory activity in rat H9c2 cells assessed as downregulation of cytochrome C expression at 10 uM in presence of 2-(4-(5-oxo-5-((5-sulfamoyl-1,3,4-thiadiazol-2-yl)amino)pentyl)-1H-1,2,3-triazol-1-yl)acetic acid by Western blot analysis; assay type: functional, cell-based
H9c2 [4] = assay: Anti-inflammatory activity in rat H9c2 cells assessed as inhibition of endogenous IL-6 protein expression in presence of 2-(4-(5-oxo-5-((5-sulfamoyl-1,3,4-thiadiazol-2-yl)amino)pentyl)-1H-1,2,3-triazol-1-yl)acetic acid by DAPI staining based immunofluorescence analysis; assay type: functional, cell-based
H9c2 [5] = assay: Antiinflammatory activity in LPS/hypoxia induced CA9 knockdown rat H9c2 cells assessed as decrease in IL-1 beta protein level at 10 uM by Western blot analysis; assay type: functional, cell-based
H9c2 [6] = assay: Reversal of LPS/hypoxia induced mitochondrial membrane potential loss in rat H9c2 cells assessed as increase in JC-1 polymer morphology in presence of 2-(4-(5-oxo-5-((5-sulfamoyl-1,3,4-thiadiazol-2-yl)amino)pentyl)-1H-1,2,3-triazol-1-yl)acetic acid by JC-1 dye based flow cytometry analysis; assay type: functional, cell-based; settings: time 20.0 min
H9c2 [7] = assay: Reversal of ATP level in LPS/hypoxia induced rat H9c2 cells in presence of 2-(4-(5-oxo-5-((5-sulfamoyl-1,3,4-thiadiazol-2-yl)amino)pentyl)-1H-1,2,3-triazol-1-yl)acetic acid by multimode plate reader analysis (reference value: 21.37 nmol/mg); assay type: functional
H9c2 [8] = assay: Inhibition of intracellular ROS level in LPS/hypoxia induced rat H9c2 cells in presence of 2-(4-(5-oxo-5-((5-sulfamoyl-1,3,4-thiadiazol-2-yl)amino)pentyl)-1H-1,2,3-triazol-1-yl)acetic acid and Na2WO4 by DCFH-DA probe based fluorescence confocal microscopy analysis; assay type: functional, cell-based
Rattus norvegicus [9] = assay: (§2) Antiinflammatory activity against LPS/talc powder induced pericarditic Wistar rat assessed as reduction in heart swelling at 20 mg/kg, ip pretreated for 2 hrs followed by LPS/tal powder stimulation measured after 48 hrs in presence of 2-(4-(5-oxo-5-((5-sulfamoyl-1,3,4-thiadiazol-2-yl)amino)pentyl)-1H-1,2,3-triazol-1-yl)acetic acid; assay type: functional, organism-based; settings: time 50.0 hrs
Rattus norvegicus [10] = assay: as §2, with “elimination of pericardial effusion” for “reduction in heart swelling”; assay type: functional, organism-based; settings: time 50.0 hrs

COc1ccc2c(c1)c(CC(=O)O)c(C)n2C(=O)c1ccc(Cl)cc1 [INDOMETHACIN]
Activity (H9c2 [1]): 23.96%
Activity (H9c2 [2]): 9.61%
Activity (H9c2 [3]): Active
Activity (H9c2 [4]): Active
Activity (H9c2 [5]): Active
Activity (H9c2 [6]): Active
Activity (H9c2 [7]): 47.52 nmol/mg
inhibition (H9c2 [8]): Active
Activity (Rattus norvegicus [9]): Active
Activity (Rattus norvegicus [10]): Active
